Key:
[1] = test system: retinal ganglion cells (RGCs); assay: Optic nerve crush injury after immunization with MOG p35-55, retrograde labeling of RGCs; format: in vivo, rat; details: 50 μg/animal with IFA intradermally in footpads ten days prior to crush; two weeks after injury
Experimental: FIG. 10 is a graph illustrating inhibition of secondary degeneration after optic nerve crush injury in adult rats. See text, Example 3, for experimental details. Rats were injected intradermally through the footpads with a 21-mer peptide based on MOG amino acid residues 35-55 (MOG p35-55) (([…], chemically synthesized at the Weizmann Institute of Science, Rehovot, Israel) or PBS ten days prior to optic nerve crush injury or MOG p35-55 in the absence of crush injury. MOG p35-55 was administered with IFA. Surviving optic nerve fibers were monitored by retrograde labeling of RGCs. The number of RGCs in rats injected with PBS or MOG p35-55 was expressed as a percentage of the total number of neurons in rats injected with MOG p35-55 in the absence of crush injury.
Rats were injected intradermally in the footpads with MOG p35-55 (50 μg/animal) and IFA, or PBS, ten days prior to optic nerve crush injury. RGCs were assessed two weeks after injury using retrograde labeling as described above. The number of RGCs in rats injected with PBS or MOG p35-55 was expressed as a percentage of the total number of neurons in rats injected with MOG p35-55 in the absence of crush injury.

contused spinal cord = assay: Spinal cord contusion, post-traumatic immunization with Nogo p472, BBB hindlimb motor score; format: in vivo, SPD rats
[2] = test system: retinal ganglion cells (RGCs); assay: Optic nerve crush injury after oral MBP, retrograde labeling of RGCs; format: in vivo, Lewis rats; details: fed antigen from ten days before mild crush injury (FIG. 14)
Experimental: MBP (Sigma, Israel) (1 mg in 0.5 ml saline) was administered orally to adult rats by gavage using a blunt needle. MBP was administered 5 times, i.e., every third day beginning two weeks prior to optic nerve crush injury. Surviving optic nerve fibers were monitored by retrograde labeling of RGCs. The number of RGCs in treated rats was expressed as a percentage of the total number of neurons in untreated rats following the injury.
Lewis rats were fed 1 mg MBP daily, or every other day, or 4 times a day at two-hour intervals for five consecutive days. Control animals were given PBS or the non-self antigen OVA Sigma, Israel). Ten days after the start of MBP ingestion, the right optic nerves were subjected to a calibrated mild crush injury. Two weeks later the RGCs were retrogradely labelled by application of the fluorescent lipophilic dye 4-Di-10-Asp(Molecular Probes Europe BV, Netherlands), distally to the site of injury, as described. […] Six days after dye application, the retina was detached from the eye, prepared as a flattened whole mount in 4% paraformaldehyde solution, and examined for labeled RGCs by fluorescence microscopy. RGCs were counted from three different regions in the retina. The results are expressed as normalized percentage of each retina to untreated injured animal mean of the same experiment. […]

In the case of “MOG p35-55: 21-mer peptide based on amino acids 35-55 of MOG, chemically synthesized, given with IFA (MEVGWYRSPFSRVVHLYRNGK; given with IFA; UniProt Q61885 63-83, looked up, fragment)”, the “number of labeled RGCs compared to animals receiving PBS” value [1] is reported as “about 12.5 fold”.

For “p472: 18-mer peptide, residues 623-640 of rat Nogo-A (SEQ ID NO:19), emulsified in CFA (SYDSIKLEPENPPPYEEA; emulsified in CFA; listed as Rattus norvegicus)”, the “overall functional recovery compared to control rats (PBS in CFA or PBS only)” value (contused spinal cord; 100 μg/rat in CFA s.c. after contusion, female and male rats, P<0.01) was “significantly improved”, the “day from which hind limb locomotion was significantly better than PBS-treated controls” value (contused spinal cord; female rats, 50 mm, boosted one week after injury) was 25 days and the “day after injury from which locomotor performance was significantly better than PBS+CFA-treated controls” value (contused spinal cord; male rats) was 11 days.

B1: OVA: non-self antigen ovalbumin (Sigma) fed to control rats (protein, UniProt P01012 2-386, looked up)
Ovalbumin: GSIGAASMEFCFDVFKELKVHHANENIFYCPIAIMSALAMVYLGAKDSTRTQINKVVRFDKLPGFGDSIEAQCGTSVNVHSSLRDILNQITKPNDVYSFSLASRLYAEERYPILPEYLQCVKELYRGGLEPINFQTAADQARELINSWVESQTNGIIRNVLQPSSVDSQTAMVLVNAIVFKGLWEKAFKDEDTQAMPFRVTEQESKPVQMMYQIGLFRVASMASEKMKILELPFASGTMSMLVLLPDEVSGLEQLESIINFEKLTEWTSSNVMEERKIKVYLPRMKMEEKYNLTSVLMAMGITDVFSSSANLSGISSAESLKISQAVHAAHAEINEAGREVVGSAEAGVDAASVSEEFRADHPFLFCIKHIATNAVLFFGRCVSP
With B1 the “number of surviving RGCs two weeks after optic nerve injury vs control group” value [2] was “ns”.

Source: patent US7560102B2, “Method for reducing neuronal degeneration so as to ameliorate the effects of injury or disease” (Yeda Research and Development Co., Ltd, priority 1998, dated 2009)
